{
  "source": "paper PMC12379159",
  "about": "(Journal of Natural Products, 2025)",
  "key": {"hRORγ LBD": {"target": "T1, hRORγ LBD (Homo sapiens, UniProt P51449)", "T1 construct": "His tag (N, cleaved yes); made in house; host or cells: Escherichia coli BL21 DE3", "T1 sequence (P51449 264-518)": "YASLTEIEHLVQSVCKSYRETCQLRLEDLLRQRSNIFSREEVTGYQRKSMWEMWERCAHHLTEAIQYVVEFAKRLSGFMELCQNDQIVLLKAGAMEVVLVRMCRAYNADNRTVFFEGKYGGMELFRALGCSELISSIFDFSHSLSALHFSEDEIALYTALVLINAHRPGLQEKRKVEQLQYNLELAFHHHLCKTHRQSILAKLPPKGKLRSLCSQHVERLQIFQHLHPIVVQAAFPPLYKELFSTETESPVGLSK", "test": "Thermal stability by nano differential scanning fluorimetry (nanoDSF)", "assay_type": "binding", "conditions": "RORγ-LBD with 4 equiv ligand vs without ligand; mean ± SD", "protocol": "Soluble proteins were purified on Ni Hitrap FFcrude column (Cytiva), followed by His tag removal by thrombin (MP Biomedicals) cleavage and by size exclusion chromatography on HiLoad Superdex200 column (Cytiva) equilibrated in 20 mM Tris-HCl pH 7.5, 150 mM NaCl, 1 mM TCEP (Hampton Research). Purity and homogeneity of the hRORγ LBD were assessed by SDS-PAGE. The purified protein was concentrated to 0.5–1.0 mg/mL with an Amicon Ultra 10 kDa MWCO. The aliquots of purified LBD were incubated with 4 equiv ligands or vehicle for thermal stability experiments.\nFluorescence-based thermal experiments were performed using a Prometheus NT.48 (NanoTemper Technologies, Germany) with grade standard capillaries containing 10 μL of RORγLBD with different ligands. […] NanoTemper PR. Stability Analysis v1.0.2 was used to fit the data and determine the melting temperatures Tm."}, "luciferase": {"target": "T2, luciferase (Photinus pyralis, UniProt P08659)", "T2 construct": "expressed in transfected cells; host or cells: HEK293", "T2 sequence (P08659 whole entry)": "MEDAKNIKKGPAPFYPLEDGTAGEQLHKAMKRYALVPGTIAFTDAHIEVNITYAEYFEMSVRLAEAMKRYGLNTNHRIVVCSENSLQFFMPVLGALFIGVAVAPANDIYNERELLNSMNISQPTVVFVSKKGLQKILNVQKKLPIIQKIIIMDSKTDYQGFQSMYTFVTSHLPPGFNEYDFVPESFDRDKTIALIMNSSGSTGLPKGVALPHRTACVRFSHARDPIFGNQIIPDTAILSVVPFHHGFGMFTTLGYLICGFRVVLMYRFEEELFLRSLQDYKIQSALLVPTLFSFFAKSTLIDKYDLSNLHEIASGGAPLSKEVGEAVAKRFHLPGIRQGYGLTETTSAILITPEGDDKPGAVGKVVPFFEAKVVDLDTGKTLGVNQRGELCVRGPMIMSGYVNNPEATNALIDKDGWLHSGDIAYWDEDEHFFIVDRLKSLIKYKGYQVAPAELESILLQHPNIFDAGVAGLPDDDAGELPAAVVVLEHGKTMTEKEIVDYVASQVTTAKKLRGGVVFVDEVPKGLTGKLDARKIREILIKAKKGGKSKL", "test": "Direct luciferase inhibition check (cells transfected only with pTK-MH100 × 4-LUC and eGFP-N1)", "assay_type": "cell-based", "conditions": "5 μM", "protocol": "For luciferase assays, 8 × 10^6 HEK293 cells were seeded on 150 mm cell culture dishes and incubated for 5 h. Afterward, cells were transfected with the calcium phosphate coprecipitation method using 5 μg of the nuclear receptor (Gal4-hRORγ or full-length human RORγ), 5 μg of a luciferase reporter (pTK-MH100 × 4-LUC for Gal4-hRORγ experiments or RORE-LUC for full-length human RORγ experiments) and 3 μg eGFP-N1 (for assessing transfection efficiency) plasmid DNA and incubated overnight. […] The medium was changed the following day, and cells were further incubated for another four to 5 h before trypsin/EDTA was added to detach them from the dishes. […] RLUs were normalized to relative fluorescence units (RFU) to account for differences in cell number and transfection efficiency and then normalized to the vehicle control. Results are expressed as fold activation relative to the vehicle control."}},
  "data": [
    {"compound": "C=C(C)[C@@H]1CC[C@]2(C(=O)O)CC[C@]3(C)[C@H](CC[C@@H]4[C@@]5(C)C/C(=C/c6ccco6)C(=O)C(C)(C)[C@@H]5CC[C@]43C)[C@@H]12", "note": "[Compound 15, (2Z)-2-(2-furanylmethylene)-3-oxolup-20(29)-en-28-oic acid]", "values": [
      {"measurement": "ΔTm measured with nano differential scanning fluorimetry", "setting": "hRORγ LBD", "result": "9.6 ± 0.4", "unit": "°C"},
      {"measurement": "Inhibition of luciferase enzyme activity", "setting": "luciferase", "result": "did not inhibit luciferase enzyme activity"}
    ]}
  ]
}
